In patent publication US12240813B2, “Deuterated tryptamine derivatives and methods of use” (priority 2020, dated 2025):

How the values were obtained:
rat liver microsomes = assay: Metabolic stability in rat liver microsomes (RLM); details: RLM; for RLM, % (half-life as % vs. the related nondeuterated compound): values in square brackets are within 10% difference (assay's accuracy), no deuteration effect; for RLM (metabolized or not): last assay time point 120 min
hrMAO-A = target: T1, hrMAO-A (Homo sapiens, UniProt P21397); assay: Metabolic stability in the presence of hrMAO-A; assay type: in vitro ADME; details: MAO-A; values in square brackets are within 10% difference (assay's accuracy), no deuteration effect
T1 construct: purchased XenoTech Lot #8213001
T1 sequence (P21397 1-527): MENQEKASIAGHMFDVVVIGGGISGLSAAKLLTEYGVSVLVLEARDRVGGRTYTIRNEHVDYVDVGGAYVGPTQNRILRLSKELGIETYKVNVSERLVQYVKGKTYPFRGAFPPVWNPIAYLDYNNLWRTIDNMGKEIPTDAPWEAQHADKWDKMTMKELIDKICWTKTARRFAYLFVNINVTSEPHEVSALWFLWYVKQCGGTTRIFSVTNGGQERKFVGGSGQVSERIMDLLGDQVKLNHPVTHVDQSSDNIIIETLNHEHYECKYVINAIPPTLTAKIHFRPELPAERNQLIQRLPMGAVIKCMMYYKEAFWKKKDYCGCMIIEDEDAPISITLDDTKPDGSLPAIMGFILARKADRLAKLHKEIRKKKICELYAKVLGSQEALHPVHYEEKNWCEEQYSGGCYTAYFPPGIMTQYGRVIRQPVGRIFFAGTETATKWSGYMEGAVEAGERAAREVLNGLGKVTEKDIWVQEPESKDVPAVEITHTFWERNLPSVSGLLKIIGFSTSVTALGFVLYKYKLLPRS
Experimental: The reaction mixture was prepared as described below. The co-dosed TAs were added into the reaction mixture at a final concentration of 1 microM each. The positive control, kynuramine (25 microM), was run simultaneously with the TAs in a separate reaction. The reaction mixture (without TAs or kynuramine) was equilibrated in a shaking water bath at 37° C. for 5 minutes. The reaction was initiated by the addition of the TAs or kynuramine, and the mixture was incubated in a shaking water bath at 37° C. Aliquots (100 microL) of the TA reaction mixture were withdrawn at 0, 5, 10, 20, 30, 60, and 120 minutes. Aliquots (100 microL) of the positive control reaction mixture were withdrawn at 0 and 30 minutes. TA and kynuramine samples were immediately combined with 100 microL of ice-cold 100% MeCN containing 0.1% formic acid and IS to terminate the reaction. The samples were then mixed and centrifuged to precipitate proteins. All TA samples were assayed by LC-HRAMS. The PARR (analyte to IS) at each time point was compared to the PARR at time 0 to determine the percent remaining at each time point. Reaction composition: hrMAO 0.02 mg/mL; Potassium Phosphate, pH 7.4 100 mM; Magnesium Chloride 5 mM; Test Articles (each) 1 microM.

Row | SMILES | RLM, % (half-life as % vs. the related nondeuterated compound) (rat liver microsomes) | MAO, % (half-life as % vs. the related nondeuterated compound) (hrMAO-A) [%] | RLM (metabolized or not) (rat liver microsomes)
1 | [2H]C([2H])(c1c[nH]c2ccccc12)C([2H])([2H])N(CC=C)CC=C | [106] % | – | –
2 | [2H]C([2H])([2H])C([2H])([2H])NC([2H])([2H])C([2H])([2H])c1c[nH]c2ccccc12 | 159% | 166 | –
3 | [2H]C([2H])(Cc1c[nH]c2ccccc12)NC([2H])([2H])C([2H])([2H])[2H] | 151% | 170 | –
4 | [2H]C([2H])([2H])C([2H])([2H])NC([2H])([2H])C([2H])([2H])c1c[nH]c2cccc(O)c12 | [93] % | – | –
5 | [2H]c1[nH]c2c([2H])c([2H])c(OC)c([2H])c2c1CCN(CC)CC | 172% | – | –
6 | [2H]C([2H])(c1c[nH]c2ccccc12)C([2H])([2H])N(CC)CC | [105] % | – | –
7 | [2H]C([2H])(c1c[nH]c2ccc(OC)cc12)C([2H])([2H])N(CC)CC | [95] % | – | –
8 | [2H]C([2H])(c1c[nH]c2ccc(O)cc12)C([2H])([2H])N(CC)CC | [106] % | – | –
9 | [2H]c1ccc2[nH]c([2H])c(CCN([2H])CC)c2c1O | – | – | R
10 | [2H]C([2H])(NCC)C([2H])([2H])c1c[nH]c2ccccc12 | 142% | 140 | –
11 | [2H]C([2H])(Cc1c[nH]c2ccccc12)NCC | 138% | 145 | –
12 | [2H]C([2H])(NCC)C([2H])([2H])c1c[nH]c2cccc(O)c12 | [94] % | – | –
13 | [2H]C([2H])([2H])Oc1ccc2[nH]cc(C([2H])([2H])C([2H])([2H])N(C([2H])([2H])[2H])C([2H])([2H])[2H])c2c1 | 299% | 372 | –
14 | [2H]C([2H])([2H])NC([2H])([2H])C([2H])([2H])c1c[nH]c2ccccc12 | 214% | 711 | –
15 | [2H]C([2H])([2H])NC([2H])([2H])Cc1c[nH]c2ccccc12 | 207% | 744 | –
16 | [2H]C([2H])([2H])NC([2H])([2H])C([2H])([2H])c1c[nH]c2cccc(O)c12 | 173% | 459 | –
17 | [2H]C([2H])([2H])NC([2H])([2H])Cc1c[nH]c2cccc(O)c12 | 163% | 466 | –
18 | [2H]C([2H])(c1c[nH]c2ccccc12)C([2H])([2H])N(C)CC | 131% | 162 | –
19 | [2H]C([2H])(Cc1c[nH]c2ccccc12)N(C)CC | 121% | 168 | –
20 | [2H]C([2H])(c1c[nH]c2ccc(OC)cc12)C([2H])([2H])N(C)CC | 115% | 132 | –
21 | [2H]C([2H])(Cc1c[nH]c2ccc(OC)cc12)N(C)CC | 117% | 126 | –
22 | [2H]C([2H])(c1c[nH]c2ccc(O)cc12)C([2H])([2H])N(C)CC | 144% | 179 | –
23 | [2H]C([2H])(Cc1c[nH]c2ccc(O)cc12)N(C)CC | 132% | 173 | –
24 | [2H]C([2H])(c1c[nH]c2cccc(OC)c12)C([2H])([2H])N(C)CC | 161% | 291 | –

Row | SMILES | RLM, % (half-life as % vs. the related nondeuterated compound) (rat liver microsomes) | MAO, % (half-life as % vs. the related nondeuterated compound) (hrMAO-A) [%] | RLM (metabolized or not) (rat liver microsomes)
25 | [2H]C([2H])(Cc1c[nH]c2cccc(OC)c12)N(C)CC | 163% | 281 | –
26 | [2H]C([2H])(c1c[nH]c2ccc(OC)cc12)C([2H])([2H])N(C)C | 184% | 229 | –
27 | [2H]C([2H])(c1c[nH]c2ccc(O)cc12)C([2H])([2H])N(C)C | 136% | 418 | –
28 | [2H]C([2H])(Cc1c[nH]c2ccc(O)cc12)N(C)C | 133% | 415 | –
29 | [2H]C([2H])(c1c[nH]c2cccc(OC)c12)C([2H])([2H])N(C)C | 190% | 325 | –
30 | [2H]C([2H])(Cc1c[nH]c2cccc(OC)c12)N(C)C | 185% | 335 | –
31 | [2H]C([2H])(NC)C([2H])([2H])c1c[nH]c2cccc(O)c12 | 160% | 396 | –
32 | [2H]C([2H])(Cc1c[nH]c2cccc(O)c12)NC | 154% | 395 | –
33 | [2H]c1[nH]c2c([2H])c([2H])c([2H])c([2H])c2c1CCN([2H])C(C)C | 145% | – | –
34 | [2H]c1[nH]c2c([2H])c([2H])c([2H])c(O)c2c1CCN([2H])C(C)C | 131% | – | –
35 | [2H]C([2H])(NC(C)C)C([2H])([2H])c1c[nH]c2ccccc12 | [106] % | – | –
36 | [2H]C([2H])(NC(C)C)C([2H])([2H])c1c[nH]c2cccc(O)c12 | [108] % | – | –
37 | [2H]c1[nH]c2c([2H])c([2H])c([2H])c(O)c2c1CCN(C(C)C)C(C)C | 167% | – | –
38 | [2H]C([2H])(c1c[nH]c2cccc(O)c12)C([2H])([2H])N(C(C)C)C(C)C | [97] % | – | –
39 | C=CCN(CC=C)CCc1c[nH]c2ccccc12 [reference compound] | – | – | R
40 | C=CCNCCc1c[nH]c2ccccc12 [reference compound] | – | – | R
41 | CCN(CC)CCc1c[nH]c2ccccc12 [reference compound] | – | – | R
42 | CCN(CC)CCc1c[nH]c2ccc(OC)cc12 [reference compound] | – | – | R
43 | CCN(CC)CCc1c[nH]c2ccc(O)cc12 [reference compound] | – | – | R
44 | CCN(CC)CCc1c[nH]c2cccc(OC)c12 [reference compound] | – | – | R
45 | CCNCCc1c[nH]c2cccc(O)c12 [reference compound] | – | – | R
46 | CC(C)NCCc1c[nH]c2ccccc12 [reference compound] | – | – | R
47 | CC(C)NCCc1c[nH]c2cccc(O)c12 [reference compound] | – | – | R
48 | CC(C)N(CCc1c[nH]c2cccc(O)c12)C(C)C [reference compound] | – | – | R
